Patent publication US10570129B2 (Zoetis Services LLC, priority 2015, dated 2020)

How the values were obtained:
[1] = test system: D. immitis microfilariae; assay: Dirofilaria immitis, microfilariae (DiMF) in vitro motility assay; format: cell-based; conditions: Dirofilaria immitis, 72 h, read-out: DiMF minimally effective dose (MEC)
[2] = test system: Haemonchus contortus L3; assay: microbe, parasite or virus in culture; format: cell-based; conditions: Haemonchus contortus, 96 h, read-out: HcL3 Minimal Effective Concentration (MEC)

With `O=C(NCc1ccnc(Cl)c1)n1c2c(c3ccc(C(F)(F)F)cc31)CN(C/C=C/c1ccc(Cl)c(Cl)c1)CC2` [Example 158, (E)-N-((2-chloropyridin-4-yl)methyl)-2-(3-(3,4-dichlorophenyl)allyl)-7-(trifluoromethyl)-1,2,3,4-tetrahydro-5H-pyrido[4,3-b]indole-5-carboxamide] as the compound, how does the minimal effective concentration [1] read?
Its minimal effective concentration is 16.8 µM.

And the minimal effective concentration [2]?
Its minimal effective concentration is 2.2 µM.

How did the minimal effective concentration [1] turn out when `N#Cc1ccc(/C=C/CN2CCc3c(c4c(Cl)c(F)ccc4n3C(=O)NCc3ccnc(Cl)c3)C2)cc1` [Example 303, (E)-9-chloro-N-((2-chloropyridin-4-yl)methyl)-2-(3-(4-cyanophenyl)allyl)-8-fluoro-1,2,3,4-tetrahydro-5H-pyrido[4,3-b]indole-5-carboxamide] was run?
Its minimal effective concentration is 57.4 µM.

What about the minimal effective concentration [2] of the same compound?
The minimal effective concentration was 1 µM.

What does the source list for `O=C(NCc1ccnc(Cl)c1)n1c2c(c3cc(OC(F)(F)F)ccc31)CN(C/C=C/c1ccc(Cl)c(F)c1)CC2` [Example 384, (E)-2-(3-(4-chloro-3-fluorophenyl)allyl)-N-((2-chloropyridin-4-yl)methyl)-8-(trifluoromethoxy)-1,2,3,4-tetrahydro-5H-pyrido[4,3-b]indole-5-carboxamide]?
minimal effective concentration [1]: 18.2 µM; minimal effective concentration [2]: 1 µM

Which minimal effective concentration [1] does the source give for `O=C(NCc1ccnc(Cl)c1)n1c2c(c3cc(OC(F)(F)F)ccc31)CN(C/C=C/c1ccc(F)c(Cl)c1)CC2` [Example 388, (E)-2-(3-(3-chloro-4-fluorophenyl)allyl)-N-((2-chloropyridin-4-yl)methyl)-8-(trifluoromethoxy)-1,2,3,4-tetrahydro-5H-pyrido[4,3-b]indole-5-carboxamide] here?
The minimal effective concentration was greater than 100 µM.

What about the minimal effective concentration [2] of the same compound?
The minimal effective concentration was 1.8 µM.

Which results are given for `N#Cc1ccc2c(c1)c1c(n2C(=O)NCc2ccnc(Cl)c2)CCN(C/C=C/c2c(F)cc(Cl)cc2F)C1` [Example 74, (E)-2-(3-(4-chloro-2,6-difluorophenyl)allyl)-N-((2-chloropyridin-4-yl)methyl)-8-cyano-1,2,3,4-tetrahydro-5H-pyrido[4,3-b]indole-5-carboxamide]?
minimal effective concentration [1]: > 100 µM; minimal effective concentration [2]: 0.2 µM

Which results are given for `O=C(NCc1ccnc(F)c1)n1c2c(c3cc(F)c(Cl)cc31)CN(C/C=C/c1ccc(F)cc1F)CC2` [Example 312, (E)-7-chloro-2-(3-(2,4-difluorophenyl)allyl)-8-fluoro-N-((2-fluoropyridin-4-yl)methyl)-1,2,3,4-tetrahydro-5H-pyrido[4,3-b]indole-5-carboxamide]?
minimal effective concentration [1]: 1 µM; minimal effective concentration [2]: 0.1 µM

With `O=C(NCc1ccnc(Cl)c1)n1c2c(c3ccc(N4CCOCC4)cc31)CN(C/C=C/c1ccc(Cl)c(Cl)c1)CC2` [Example 508, (E)-N-((2-chloropyridin-4-yl)methyl)-2-(3-(3,4-dichlorophenyl)allyl)-7-morpholino-1,2,3,4-tetrahydro-5H-pyrido[4,3-b]indole-5-carboxamide] as the compound, how does the minimal effective concentration [1] read?
The minimal effective concentration was 9 µM.

And the minimal effective concentration [2]?
The minimal effective concentration was 1.6 µM.

How did the minimal effective concentration [1] turn out when `N#Cc1ccc(/C=C/CN2CCc3c(c4cc(OC(F)(F)F)ccc4n3C(=O)NCc3ccnc(F)c3)C2)cc1F` [Example 402, (E)-2-(3-(4-cyano-3-fluorophenyl)allyl)-N-((2-fluoropyridin-4-yl)methyl)-8-(trifluoromethoxy)-1,2,3,4-tetrahydro-5H-pyrido[4,3-b]indole-5-carboxamide] was run?
The minimal effective concentration was 5.7 µM.

What about the minimal effective concentration [2] of the same compound?
The minimal effective concentration was 0.3 µM.

For `O=C(NCc1ccnc(Cl)c1)n1c2c(c3cc(Cl)c(Cl)cc31)CN(C/C=C/c1ccc(F)c(Cl)c1)CC2` [Example 277, (E)-7,8-dichloro-2-(3-(3-chloro-4-fluorophenyl)allyl)-N-((2-chloropyridin-4-yl)methyl)-1,2,3,4-tetrahydro-5H-pyrido[4,3-b]indole-5-carboxamide], which minimal effective concentration [1] is on record?
Its minimal effective concentration is greater than 100 µM.

What about the minimal effective concentration [2] of the same compound?
The minimal effective concentration was 1 µM.

With `O=C(NCc1ccnc(F)c1)n1c2c(c3ccc(C(F)(F)F)cc31)CN(C/C=C/c1ccc(Cl)c(Cl)c1)CC2` [Example 166, (E)-2-(3-(3,4-dichlorophenyl)allyl)-N-((2-fluoropyridin-4-yl)methyl)-7-(trifluoromethyl)-1,2,3,4-tetrahydro-5H-pyrido[4,3-b]indole-5-carboxamide] as the compound, how does the minimal effective concentration [1] read?
Its minimal effective concentration is 5.7 µM.

And the minimal effective concentration [2]?
Its minimal effective concentration is 10 µM.

Which results are given for `O=C(NCc1ccnc(Cl)c1)n1c2c(c3cc(C(F)(F)F)ccc31)CN(C/C=C/c1ccc(Cl)cc1)CC2` [Example 332, (E)-2-(3-(4-chlorophenyl)allyl)-N-((2-chloropyridin-4-yl)methyl)-8-(trifluoromethyl)-1,2,3,4-tetrahydro-5H-pyrido[4,3-b]indole-5-carboxamide]?
minimal effective concentration [1]: 13.5 µM; minimal effective concentration [2]: 1 µM

Which minimal effective concentration [1] does the source give for `N#Cc1ccc2c3c(n(C(=O)NCc4ccnc(Cl)c4)c2c1)CCN(C/C=C/c1ccc(F)cc1F)C3` [Example 26, (E)-N-((2-chloropyridin-4-yl)methyl)-7-cyano-2-(3-(2,4-difluorophenyl)allyl)-1,2,3,4-tetrahydro-5H-pyrido[4,3-b]indole-5-carboxamide] here?
Its minimal effective concentration is 5.7 µM.

And the minimal effective concentration [2]?
Its minimal effective concentration is 2.4 µM.

With `Cc1cc2c3c(n(C(=O)NCc4ccnc(Cl)c4)c2cc1C#N)CCN(C/C=C/c1ccc(Cl)cc1)C3` [Example 176, (E)-2-(3-(4-chlorophenyl)allyl)-N-((2-chloropyridin-4-yl)methyl)-7-cyano-8-methyl-1,2,3,4-tetrahydro-5H-pyrido[4,3-b]indole-5-carboxamide] as the compound, how does the minimal effective concentration [1] read?
The minimal effective concentration was 3.3 µM.

And the minimal effective concentration [2]?
The minimal effective concentration was 0.2 µM.

Which results are given for `O=C(NCc1ccnc(F)c1)n1c2c(c3cc(OC(F)(F)F)ccc31)CN(C/C=C/c1ccc(F)cc1F)CC2` [Example 403, (E)-2-(3-(2,4-difluorophenyl)allyl)-N-((2-fluoropyridin-4-yl)methyl)-8-(trifluoromethoxy)-1,2,3,4-tetrahydro-5H-pyrido[4,3-b]indole-5-carboxamide]?
minimal effective concentration [1]: 18.2 µM; minimal effective concentration [2]: 0.3 µM

How did the minimal effective concentration [1] turn out when `N#Cc1cc2c3c(n(C(=O)NCc4ccnc(Cl)c4)c2cc1Cl)CCN(C/C=C/c1ccc(Cl)cc1)C3` [Example 177, (E)-7-chloro-2-(3-(4-chlorophenyl)allyl)-N-((2-chloropyridin-4-yl)methyl)-8-cyano-1,2,3,4-tetrahydro-5H-pyrido[4,3-b]indole-5-carboxamide] was run?
The minimal effective concentration was 5.7 µM.

What about the minimal effective concentration [2] of the same compound?
Its minimal effective concentration is 0.3 µM.

What does the source list for `N#Cc1ccc(/C=C/CN2CCc3c(c4cc(F)c(Cl)cc4n3C(=O)NCc3ccnc(Cl)c3)C2)cc1F` [Example 298, (E)-7-chloro-N-((2-chloropyridin-4-yl)methyl)-2-(3-(4-cyano-3-fluoro-phenyl)allyl)-8-fluoro-1,2,3,4-tetrahydro-5H-pyrido[4,3-b]indole-5-carboxamide]?
minimal effective concentration [1]: > 100 µM; minimal effective concentration [2]: 1.8 µM

With `N#Cc1ccc2c3c(n(C(=O)NCc4ccnc(Cl)c4)c2c1)CCN(C/C=C/c1ccc(Br)cc1F)C3` [Example 5, (E)-2-(3-(4-bromo-2-fluorophenyl)allyl)-N-((2-chloropyridin-4-yl)methyl)-7-cyano-1,2,3,4-tetrahydro-5H-pyrido[4,3-b]indole-5-carboxamide] as the compound, how does the minimal effective concentration [1] read?
The minimal effective concentration was 5.7 µM.

And the minimal effective concentration [2]?
The minimal effective concentration was 1 µM.

`O=C(NCc1ccnc(Cl)c1)n1c2c(c3cc(F)c(OC(F)(F)F)cc31)CN(C/C=C/c1ccc(Cl)cc1)CC2` [Example 469, (E)-2-(3-(4-chlorophenyl)allyl)-N-((2-chloropyridin-4-yl)methyl)-8-fluoro-7-(trifluoromethoxy)-1,2,3,4-tetrahydro-5H-pyrido[4,3-b]indole-5-carboxamide] was tested. Which minimal effective concentration [1] did it give?
Its minimal effective concentration is greater than 100 µM.

And the minimal effective concentration [2]?
The minimal effective concentration was 1 µM.

With `O=C(NCc1ccnc(F)c1)n1c2c(c3cc(OC(F)(F)F)ccc31)CN(C/C=C/c1cc(F)cc(F)c1)CC2` [Example 407, (E)-2-(3-(3,5-difluorophenyl)allyl)-N-((2-fluoropyridin-4-yl)methyl)-8-(trifluoromethoxy)-1,2,3,4-tetrahydro-5H-pyrido[4,3-b]indole-5-carboxamide] as the compound, how does the minimal effective concentration [1] read?
The minimal effective concentration was 5.7 µM.

And the minimal effective concentration [2]?
Its minimal effective concentration is 1 µM.

Which results are given for `O=C(NCc1ccnc(F)c1)n1c2c(c3cc(C(F)(F)F)ccc31)CN(C/C=C/c1ccc(Cl)c(F)c1)CC2` [Example 415, (E)-2-(3-(4-chloro-3-fluorophenyl)allyl)-N-((2-fluoropyridin-4-yl)methyl)-8-(trifluoromethyl)-1,2,3,4-tetrahydro-5H-pyrido[4,3-b]indole-5-carboxamide]?
minimal effective concentration [1]: 12.4 µM; minimal effective concentration [2]: 2.7 µM

Which minimal effective concentration [1] does the source give for `Cc1ccc2c(c1)c1c(n2C(=O)NCc2ccnc(Cl)c2)CCN(C/C=C/c2ccc(C#N)cc2)C1` [Example 430, (E)-N-((2-chloropyridin-4-yl)methyl)-2-(3-(4-cyanophenyl)allyl)-8-methyl-1,2,3,4-tetrahydro-5H-pyrido[4,3-b]indole-5-carboxamide] here?
Its minimal effective concentration is greater than 100 µM.

What about the minimal effective concentration [2] of the same compound?
Its minimal effective concentration is 1 µM.

What does the source list for `N#Cc1ccc(/C=C/CN2CCc3c(c4cc(F)c(Cl)cc4n3C(=O)NCc3ccnc(F)c3)C2)cc1F` [Example 311, (E)-7-chloro-2-(3-(4-cyano-3-fluorophenyl)allyl)-8-fluoro-N-((2-fluoro-pyridin-4-yl)methyl)-1,2,3,4-tetrahydro-5H-pyrido[4,3-b]indole-5-carboxamide]?
minimal effective concentration [1]: 5.7 µM; minimal effective concentration [2]: 0.5 µM

Which minimal effective concentration [1] does the source give for `O=C(NCc1ccnc(Cl)c1)n1c2c(c3cc(C(F)(F)F)ccc31)CN(C/C=C/c1ccc(F)c(Cl)c1)CC2` [Example 413, (E)-2-(3-(3-chloro-4-fluorophenyl)allyl)-N-((2-chloropyridin-4-yl)methyl)-8-(trifluoromethyl)-1,2,3,4-tetrahydro-5H-pyrido[4,3-b]indole-5-carboxamide] here?
The minimal effective concentration was greater than 100 µM.

What about the minimal effective concentration [2] of the same compound?
Its minimal effective concentration is 1.8 µM.

`O=C(NCc1ccnc(F)c1)n1c2c(c3c(Cl)c(Cl)ccc31)CN(C/C=C/c1ccc(Cl)cc1)CC2` [Example 293, (E)-8,9-dichloro-2-(3-(4-chlorophenyl)allyl)-N-((2-fluoropyridin-4-yl)methyl)-1,2,3,4-tetrahydro-5H-pyrido[4,3-b]indole-5-carboxamide] was tested. Which minimal effective concentration [1] did it give?
The minimal effective concentration was 5.7 µM.

And the minimal effective concentration [2]?
The minimal effective concentration was 3.3 µM.
